Assays:
[1] = tested on: BALB/cByJ and α7nAChR−/− mice; assay: IL-33-induced AHR in WT and α7nAChR-deficient mice; type: in vivo, mouse; conditions: rm-IL-33, agonist 125 μg days 1-3
Experimental: FIGS. 4A-4E: α7nAChR expression is critical for GTS-21 action on ILC2s in vivo. BALB/cByJ and α7nAChR^−/− mice were intranasally challenged with rm-IL-33 or PBS, and also given α7nAChR agonist (125 μg) or PBS on days 1-3. Measurement of lung function and analysis of BAL followed on day 4. (FIG. 4A) Lung resistance. (FIG. 4B) Total number of eosinophils in BALF. (FIG. 4C) Rag^−/− GC^−/− mice were received ILC2s from either WT or α7nAChR^−/− mice. After the adoptive transfer, mice were intranasally challenged with rm-IL-33 or PBS; they also received α7nAChR agonist (125 μg) or PBS on days 1-3. Measurement of lung function and analysis of BAL followed on day 4, according to scheme 4C. (FIG. 4D) Lung resistance. (FIG. 4E) Total number of eosinophils in BALF. Data are representative of at least three independent experiments and are presented as means±SEM (n=4; Student's test ***, p<0.001, WT IL-33+α7nAChR agonist vs. α7nAChR^−/− IL-33+α7nAChR agonist).
To assess whether the previously observed effects of GTS-21 are due to its actions on the α7nAChR, Applicants challenged WT and α7nAChR-deficient mice with or without rm-IL-33, and with or without α7nAChR agonist, for three consecutive days (FIGS. 4A-4B). As expected, in the WT mice, the agonist repressed IL-33-induced AHR and eosinophilic infiltration.
Mice were intranasally (i.n.) administered carrier-free recombinant mouse IL-33 (BioLegend, San Diego Calif., 0.5 µg per mouse in 50 µL) with or without […] of α7nAChR agonist (kindly provided by Lin Chen) on three consecutive days. Mice were intranasally (i.n.) administered carrier-free recombinant mouse IL-25 (BioLegend, San Diego Calif., 5 µg per mouse in 50 µL) with or without […] of α7nAChR agonist on three consecutive days. For Alternaria alternata experiments, mice were i.n. administered Alternaria alternata (Greer Labs, Lenoir, N.C., 100 μg per mouse in 50 μL) with or without 125 µg α7nAChR agonist for four consecutive days. One day after the last challenge, mice were anesthetized using i.p. injection of ketamine (10 mg mL^−1) and xylazine (1 mg mL^−1). Measurements of airway resistance and dynamic compliance were conducted with the Fine Pointe RC System (Buxco Research Systems, Wilmington, N.C.), in which mice were mechanically ventilated using a modified version as previously described^36,67. Mice were sequentially challenged with aerosolized PBS (baseline), followed by increasing doses of methacholine. Maximum lung resistance (RL) and minimum compliance (Cdyn) values were recorded during a three-minute period after each methacholine challenge.

lung ILC2s = assay: Gene expression analysis of ILC2s with NanoString nCounter technology; type: cell-based, mouse; conditions: ILC2s from rm-IL-33 challenged mice with or without agonist
Text: FIGS. 5A-5F: Cholinergic signal attenuates ILC2 proliferation and GATA3 expression. (FIG. 5A) Mean fluorescence intensity of Ki67 and percentage of Ki67+ cells in isolated lung ILC2s, stimulated with IL-33 in the absence and presence of α7nAChR. (FIG. 5B) Mean fluorescence intensity of GATA3 in isolated lung ILC2s, stimulated with IL-33 in the absence and presence of α7nAChR. One representative experiment of two is shown (n=5; Student's t test *, p<0.05; **, p<0.01; ***p<0.001). […] FACS-purified ILC2s from WT mice challenged with rm-IL-33 with or without α7nAChR agonist as described in FIG. 3A were quantified by NanoString nCounter technology. Data range from −1 to +1 for the most reduced and most increased gene expression, respectively. (FIG. 5D) Expression of NF-κB p65 in isolated lung ILC2s from mice challenged with IL-33 with (dotted line) or without (thick line) α7nAChR agonist. The level of isotype-matched stain control is shown as a gray-filled histogram. (FIG. 5E) Expression of phosphorylated IKKα/β (Ser176/180) in isolated lung ILC2s stimulated with IL-33, with (dotted line) or without (thick line) α7nAChR agonist for 24 hours. The level of isotype-matched stain control is shown as a gray-filled histogram. (FIG. 5F) Mean fluorescence intensity of phosphorylated IKKα/β with or without α7nAChR agonist.
Next, to investigate the molecular mechanism of α7nAChR agonist-mediated anti-inflammatory effects, Applicants analyzed the gene expression profile of ILC2s with or without α7nAChR agonist treatment by NanoString technology as described in the methods. […] Applicants further confirmed by flow cytometry that α7nAChR agonist reduced NF-κB p65 expression in ILC2s (FIG. 5D). To better establish the underlying mechanisms, Applicants explored the signaling pathway upstream of NF-κB by measuring the activated form of IKKα/β, which is phosphorylated on serine residues 176 and 180. Consistent with our previous results shown in FIG. 5D, α7nAChR agonist reduced phosphorylated IKKα/β expression in ILC2s (FIGS. 5E-5F). NF-κB and STAT-6 are both critical for GATA-3 transcription. The inhibition of GATA-3 expression results in a down-regulation of IL-5, IL-9 and IL-13 secretion from ILC2s.
The difference in the abundance of scripts between ILC2s purified from rm-IL33 administered mice with or without α7nAChR agonist were analyzed with NanoString nCounter technology. Heat plots were generated with R statistical software.

COc1ccc(/C=C2\CCCN=C2c2cccnc2)c(OC)c1 [GTS-21, 3-[(3E)-3-[(2,4-dimethoxyphenyl)methylidene]-5,6-dihydro-4H-pyridin-2-yl]pyridine]
IL-33-induced AHR ([1]; WT mice): repressed
eosinophilic infiltration ([1]; WT mice): repressed
IL-33-induced AHR ([1]; α7nAChR-deficient mice): affected neither AHR nor eosinophilia
eosinophilia ([1]; α7nAChR-deficient mice): affected neither AHR nor eosinophilia
RelA expression (lung ILC2s): unaffected
expression at the mRNA level of NF-κB1 (lung ILC2s): decrease
expression of GATA-3, STAT-6, NF-κB, IL-5, IL-9 and IL-13 (IL-33/IL-25 signaling pathway genes) (lung ILC2s): inhibited
expression of STAT-5a, STAT-5b, and IL-2 receptors (IL-2/IL-7 signaling panel) (lung ILC2s): relatively unaffected
factors associated with apoptosis (Casp3, Casp8, Bcl-2) (lung ILC2s): did not activate
